Laboratory results taken from patent publication US20050215621A1, “Method of treating amyloid beta precursor disorders” (Andrx Labs, LLC, priority 1999, published 2005).

How the values were obtained:
[1] = test system: H4, MDCK, and CHO cells, expressing human APPm; assay: [35S]-Met pulse-chase, immunoprecipitation (antibody 6E10) and autoradiography of Aβ peptides after 4 days with compound; type: cell-based, canine, Chinese hamster; conditions: for decrease of extracellular Aβ peptides as compared to the untreated cells: 0.5 μM, 4 days, H4, MDCK, CHO cells
Experimental: (§1) The three cell lines utilized were: Chinese Hamster Ovary (CHO) cells expressing the 751 amino acid form of APP; Mabin-Darby Canine Kidney (MDCK) cells which overexpress the 695 amino acid form of APP; Human neuroglioma (H4) cells overexpressing the 695 form of human APP. All cells were prepared by the stable introduction of a cDNA coding for human APP. All cell lines were maintained in DMEM containing 10% FBS and antibiotics.
In order to characterize the effects of cholesterol depletion, cell cultures of each cell line were cultured on six-well plates for 4 days in DMEM containing 10% FCLPDS, in the presence of lovastatin or lovastatin acid (LA).
For measurement of APP processing and Aβ peptide formation, medium was removed and the cells were washed once with PBS and then incubated for 2 hours in DMEM containing 1 mCi/ml [^35S] Methionine. After this “pulse” period, the cells were either (1) lysed to measure the total labeled APPi and APPm at time zero, or (2) the cells were incubated for 2 hours in fresh, unlabeled complete medium (“chase”) and then lysed. Then the cell supernatants and lysates were treated with the appropriate antibody to calculate the amounts of APPi, APPm, APPs, and Aβ peptides.
To measure Aβ peptides, or to measure APPs, which is the secreted carboxyl-terminal truncated form, cell supernatants were incubated with antibody 6E10,which recognizes the first 15 amino acids of the Aβ peptide that correspond to the COOH-terminal amino acids of APPs. See Buxbaum, J. D., et al. (I 994) Proc Natl Acad Sci USA, 91:4489-93, which is incorporated herein by reference.
The incubations with antibody 6E10 or antibody 369 were performed at 4° C. for 75 minutes followed by a 45 minute incubation at 4° C. with either agarose-linked anti-mouse IgG for antibody 6E1O or protein A sepharose for antibody 369. The beads were then washed three times for 10 minutes and then run on either a 10-20% Tris-Tricine Gel for APPs and Aβ peptides or an 8% polyacrylamide gel for cell-associated APP. The gels were dried and exposed to a Phosphor Imager® screen (STORM 860, Molecular Dynamics) and exposed for a minimum of two days. The protein bands were visualized on a STORM 860 Phosphor Imager® (Molecular Dynamics) and quantitated using ImageQuant® (Molecular Dynamics).
To determine whether a decrease in cholesterol is associated with a change in the amount of extracellular Aβ peptides, the H4, MDCK, and CHO cells, expressing human APPm were incubated for 4 days in the presence or absence of 0.5 μM LA. The cells were then incubated in serum-free media containing 1 mCi/mi [^35S] […] Relative levels of extracellular Aβ peptides were determined under each condition by quantitative PhosphorImager autoradiography. […]

[2] = test system: Human neuroglioma (H4) cells overexpressing the 695 form of human APP; assay: APP processing ([35S]-labeled APPs and APPm) in H4 cells; type: cell-based
Experimental: as §1
For measurement of APP processing and Aβ peptide formation, medium was removed and the cells were washed once with PBS and then incubated for 2 hours in DMEM containing 1 mCi/ml [^35S] Methionine. […]
The incubations with antibody 6E10 or antibody 369 were performed at 4° C. for 75 minutes followed by a 45 minute incubation at 4° C. with either agarose-linked anti-mouse IgG for antibody 6E1O or protein A sepharose for antibody 369. […] The protein bands were visualized on a STORM 860 Phosphor Imager® (Molecular Dynamics) and quantitated using ImageQuant® (Molecular Dynamics).
To determine whether cholesterol depletion affects other aspects of APP processing, H4 cells were incubated for four days in the presence or absence of 0.5 μM LA, and subjected to metabolic labeling. The levels of [^35S]-labeled APPi and APPm were determined by immunoprecipitation from cell lysates with an antibody against the COOH-terminal of APP, followed by quantitative autoradiography. […]

SMILES | [35S]-labeled intracellular Aβ peptides in cell lysates ([1]; 0.5 μM LA) | decrease of extracellular Aβ peptides as compared to the untreated cells [1] | concentration sufficient to significantly (p<0.001) decrease extracellular Aβ peptides ([1]; each cell type, various LA concentrations) [µM] | effects on maturation ([35S]-labeled APPm levels) ([2]; 0.5 μM LA (FIG. 6)) | [35S]-labeled APPs formation compared to control cells ([2]; H4 cells, 0.5 μM LA, 4 days (FIG. 5))
CC[C@H](C)C(=O)O[C@H]1C[C@@H](C)C=C2C=C[C@H](C)[C@H](CC[C@@H](O)C[C@@H](O)CC(=O)O)[C@H]21 [LA, lovastatin acid] | No detectable levels | 40-60% | ≥ 0.05 | not sufficient to account for the decrease in Aβ peptide levels | modest decrease
CC[C@H](C)C(=O)O[C@H]1C[C@@H](C)C=C2C=C[C@H](C)[C@H](CC[C@@H]3C[C@@H](O)CC(=O)O3)[C@H]21 [lovastatin] |  | < 20% |  |  | 
